Data set [1] deals with T1, Prostaglandin E2 receptor EP4 subtype (Homo sapiens, UniProt P35408). As to the kind of experiment: Displacement of [3H]PGE2 from human EP4 receptor expressed in HEK 293 (EBNA) cell membranes incubated for 60 mins by scintillation counting method.
Data set [2] deals with T1, Prostaglandin E2 receptor EP4 subtype. The data set is described as follows: Partial agonist activity at human EP4 receptor expressed in HEK293-AEQ17 cells assessed as cAMP accumulation by aequorin luminescence assay. It is filed as functional, cell-based.
Data set [3] relates to Rattus norvegicus. The data set is described as follows: Analgesic activity in rat model of Freund's complete adjuvant-induced acute inflammatory pain assessed as reversal of FCA-induced hypersensitivity at 10 mg/kg, po relative to untreated control. It is filed as functional.
For data set [4], the system named is Rattus norvegicus. As to the kind of experiment: Analgesic activity in rat model of chronic joint pain assessed as reversal of pain by measuring weight bearing level at 30 mg/kg, po dosed twice daily for 5 days relative to untreated control. The following applies: 120 h, read-out: INH.
A short description of data set [5]: Half life in rat at 1 mg/kg, po. It counts as ADME, organism-based. The conditions noted are these: in vivo.
Data set [6] has as its system Rattus norvegicus. As to the kind of experiment: Analgesic activity in rat model of Freund's complete adjuvant-induced acute inflammatory pain assessed as reversal of FCA-induced hypersensitivity at 3 mg/kg, po relative to untreated control. It counts as functional.
The test system of data set [7] is Rattus norvegicus. The data set is described as follows: Analgesic activity in rat model of chronic constriction injury-induced neuropathic pain assessed as reversal of mechanical allodynia at 30 mg/kg dosed twice daily for 8 days relative to untreated control. It is filed as functional. The following applies: 192 h.
In the next data set the target is Cytochrome P450 2C19 (Homo sapiens, UniProt P33261). The data set is described as follows: Inhibition of human recombinant CYP2C19. It counts as ADME.
The target in another data set is T2, Cytochrome P450 1A2 (Homo sapiens, UniProt P05177).
T2 sequence (P05177 whole entry): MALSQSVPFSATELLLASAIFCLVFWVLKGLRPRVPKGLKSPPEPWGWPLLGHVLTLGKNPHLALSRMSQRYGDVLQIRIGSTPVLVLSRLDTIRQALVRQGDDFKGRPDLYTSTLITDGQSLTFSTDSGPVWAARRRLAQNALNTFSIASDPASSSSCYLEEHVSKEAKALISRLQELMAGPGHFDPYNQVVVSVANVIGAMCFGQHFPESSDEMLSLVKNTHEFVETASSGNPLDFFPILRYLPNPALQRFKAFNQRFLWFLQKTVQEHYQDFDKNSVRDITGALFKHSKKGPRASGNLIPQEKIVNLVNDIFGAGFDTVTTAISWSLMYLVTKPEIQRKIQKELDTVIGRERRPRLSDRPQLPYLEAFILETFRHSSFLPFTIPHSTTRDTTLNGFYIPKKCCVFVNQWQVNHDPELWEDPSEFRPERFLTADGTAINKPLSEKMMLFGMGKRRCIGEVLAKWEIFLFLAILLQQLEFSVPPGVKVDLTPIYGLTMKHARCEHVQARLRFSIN
The data set is described as follows: Inhibition of human recombinant CYP1A2. It counts as ADME.

The nature of data set [8]: Blood clearance in rat at 1 mg/kg, po. It counts as ADME, organism-based.
Data set [9] has as its target T3, Cytochrome P450 3A4 (Homo sapiens, UniProt P08684). As to the kind of experiment: Inhibition of human recombinant CYP3A4 using 7BQ substrate. It counts as ADME.
Data set [10] is described as follows: Intrinsic clearance in rat liver microsomes. It counts as ADME, microsome.
For another data set, the target named is Cytochrome P450 2C9 (Homo sapiens, UniProt P11712). The data set is described as follows: Inhibition of human recombinant CYP2C9. It counts as ADME.
Another data set has as its target Cytochrome P450 2D6 (Homo sapiens, UniProt P10635). The data set is described as follows: Inhibition of human recombinant CYP2D6. It is filed as ADME.
Data set [11] in a line: Intrinsic clearance in human liver microsomes. It counts as ADME, microsome.
In data set [12] the target is T3, Cytochrome P450 3A4. As to the kind of experiment: Inhibition of human recombinant CYP3A4 using DEF substrate. It counts as ADME.
The test system of data set [13] is Rattus norvegicus. The data set is described as follows: Volume of distribution at steady state in rat at 1 mg/kg, […]. It is filed as ADME, organism-based. The following applies: in vivo.
Data set [14] relates to Rattus norvegicus. As to the kind of experiment: Analgesic activity in orally dosed rat model of Freund's complete adjuvant-induced acute inflammatory pain assessed as reversal of FCA-induced hypersensitivity. It counts as functional. The following applies: po.
The subject of data set [15] is Rattus norvegicus. The data set is described as follows: Analgesic activity in rat model of Freund's complete adjuvant-induced acute inflammatory pain assessed as reversal of FCA-induced hypersensitivity at 10 mg/kg, po pre-challenged with 3 mg/kg, po selective EP4 antagonist GW627368X. It is filed as functional, organism-based.
A short description of data set [16]: Total drug level in blood of orally dosed rat model of Freund's complete adjuvant-induced acute inflammatory pain assessed as reduction in reversal of hypersensitivity. It counts as ADME, organism-based. The following applies: in vivo, po, read-out: Drug uptake.

Data on 22 molecules can be found in ChEMBL document CHEMBL4219215, “Discovery of {4-[4,9-bis(ethyloxy)-1-oxo-1,3-dihydro-2H-benzo[f]isoindol-2-yl]-2-fluorophenyl}acetic acid (GSK726701A), a novel EP4 receptor partial agonist for the treatment of pain” (Bioorg Med Chem Lett, 2018).

Structures are written as SMILES. Calls of active or inactive are those of the source. The rule behind the calls is not given here.

T1 sequence (P35408 whole entry): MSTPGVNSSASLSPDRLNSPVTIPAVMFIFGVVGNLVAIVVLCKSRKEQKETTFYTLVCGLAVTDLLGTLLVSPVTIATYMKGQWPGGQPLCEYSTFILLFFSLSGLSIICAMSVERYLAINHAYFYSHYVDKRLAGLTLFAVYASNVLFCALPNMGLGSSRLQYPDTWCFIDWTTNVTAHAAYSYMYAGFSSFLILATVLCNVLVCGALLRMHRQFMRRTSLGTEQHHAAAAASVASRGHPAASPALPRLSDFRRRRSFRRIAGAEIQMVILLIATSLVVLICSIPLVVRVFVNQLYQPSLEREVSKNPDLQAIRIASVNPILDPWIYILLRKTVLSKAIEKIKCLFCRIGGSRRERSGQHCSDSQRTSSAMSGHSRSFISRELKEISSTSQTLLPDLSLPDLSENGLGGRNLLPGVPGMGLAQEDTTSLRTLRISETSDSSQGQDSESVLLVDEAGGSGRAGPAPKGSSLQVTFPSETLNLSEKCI
T3 sequence (P08684 whole entry): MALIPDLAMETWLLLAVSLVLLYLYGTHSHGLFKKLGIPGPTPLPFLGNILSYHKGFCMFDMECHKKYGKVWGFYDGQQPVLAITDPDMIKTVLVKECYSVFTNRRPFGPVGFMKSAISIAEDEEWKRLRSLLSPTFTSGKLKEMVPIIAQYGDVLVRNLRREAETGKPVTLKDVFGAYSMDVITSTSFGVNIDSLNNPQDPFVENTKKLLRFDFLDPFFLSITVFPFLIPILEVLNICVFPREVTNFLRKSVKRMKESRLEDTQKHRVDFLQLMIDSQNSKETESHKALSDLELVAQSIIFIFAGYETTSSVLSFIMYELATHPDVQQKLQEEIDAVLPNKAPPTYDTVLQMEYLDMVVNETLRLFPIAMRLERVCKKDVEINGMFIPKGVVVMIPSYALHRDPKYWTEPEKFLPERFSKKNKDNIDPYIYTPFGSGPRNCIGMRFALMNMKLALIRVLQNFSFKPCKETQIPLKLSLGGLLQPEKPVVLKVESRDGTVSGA
Chain of Cytochrome P450 2C19 (P33261 whole entry): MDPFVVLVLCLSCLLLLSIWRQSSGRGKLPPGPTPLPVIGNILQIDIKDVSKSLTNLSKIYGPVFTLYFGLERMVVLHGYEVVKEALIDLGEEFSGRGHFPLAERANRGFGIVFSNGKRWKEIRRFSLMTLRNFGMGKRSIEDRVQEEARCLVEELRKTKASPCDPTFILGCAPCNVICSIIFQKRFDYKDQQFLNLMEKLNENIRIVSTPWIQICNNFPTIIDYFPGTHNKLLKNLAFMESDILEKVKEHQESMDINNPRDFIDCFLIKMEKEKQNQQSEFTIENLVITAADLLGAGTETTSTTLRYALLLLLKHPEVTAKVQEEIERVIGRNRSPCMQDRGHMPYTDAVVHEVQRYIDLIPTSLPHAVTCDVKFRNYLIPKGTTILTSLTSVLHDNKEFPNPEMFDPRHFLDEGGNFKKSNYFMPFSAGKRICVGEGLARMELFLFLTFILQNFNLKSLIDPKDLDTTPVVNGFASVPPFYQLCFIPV
Chain of Cytochrome P450 2C9 (P11712 whole entry): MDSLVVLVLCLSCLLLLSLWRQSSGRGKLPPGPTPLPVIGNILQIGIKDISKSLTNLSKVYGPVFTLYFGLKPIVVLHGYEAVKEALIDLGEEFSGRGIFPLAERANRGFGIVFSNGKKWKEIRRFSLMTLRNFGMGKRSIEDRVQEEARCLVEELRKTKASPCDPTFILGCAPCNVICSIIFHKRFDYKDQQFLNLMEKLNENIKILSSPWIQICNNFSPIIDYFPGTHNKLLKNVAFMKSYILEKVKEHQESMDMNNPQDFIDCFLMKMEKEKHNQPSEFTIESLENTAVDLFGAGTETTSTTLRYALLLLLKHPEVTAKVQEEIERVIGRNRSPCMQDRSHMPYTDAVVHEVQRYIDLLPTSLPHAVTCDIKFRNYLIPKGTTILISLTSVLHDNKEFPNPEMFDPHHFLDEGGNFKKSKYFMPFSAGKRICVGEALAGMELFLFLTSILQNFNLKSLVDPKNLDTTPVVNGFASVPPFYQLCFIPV
Chain of Cytochrome P450 2D6 (P10635 whole entry): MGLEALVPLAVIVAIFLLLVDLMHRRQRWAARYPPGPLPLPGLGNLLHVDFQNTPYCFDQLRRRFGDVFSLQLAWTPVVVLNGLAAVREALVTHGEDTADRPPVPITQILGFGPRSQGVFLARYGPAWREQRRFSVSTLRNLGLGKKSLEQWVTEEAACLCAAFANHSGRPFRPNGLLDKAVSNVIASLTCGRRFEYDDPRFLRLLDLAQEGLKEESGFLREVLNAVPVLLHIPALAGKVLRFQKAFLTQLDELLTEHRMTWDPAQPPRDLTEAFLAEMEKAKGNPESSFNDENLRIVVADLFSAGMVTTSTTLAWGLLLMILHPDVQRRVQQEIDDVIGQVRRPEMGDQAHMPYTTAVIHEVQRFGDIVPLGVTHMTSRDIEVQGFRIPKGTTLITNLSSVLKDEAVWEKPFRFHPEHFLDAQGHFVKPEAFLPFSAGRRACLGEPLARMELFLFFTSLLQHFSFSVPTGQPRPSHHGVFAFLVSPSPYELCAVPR

`CCCOc1c2c(c(OCCC)c3ccccc13)C(=O)N(c1ccc(CC(=O)O)cc1)C2` had a Ki in data set [1] of 631 nM. For the same molecule, the EC50 in data set [2] was 126 nM.
On to `CCOc1c2c(c(OCC)c3ccccc13)C(=O)N(c1ccc(CC(=O)O)cc1OC)C2`, for which the EC50 in [2] was 10 nM.
In data set [1], `CCCCCCOc1c2c(c(OCCCCCC)c3ccccc13)C(=O)N(c1ccc(CC(=O)O)cc1)C2` had a Ki of more than 6310 nM. Moreover, in [2], the EC50 is more than 1000 nM.
Consider `CCOc1c2c(c(OCC)c3ccccc13)C(=O)N(c1ccc(CC(=O)O)cc1Br)C2`, for which the Activity in the data set with Rattus norvegicus [3] came to 47%. In addition, the 50% effective concentration (EC50) in data set [2] was 5.01 nM.
For the molecule `Cc1ccc(-c2cc(C(F)(F)F)nn2-c2ccc(S(N)(=O)=O)cc2)cc1` [CELECOXIB], the outcome with Rattus norvegicus [3] was Active. In addition, in the data set with Rattus norvegicus [4], the inhibition in vivo at 30 mg/kg came to 100%.
As for `CCOc1c2c(c(OCC)c3cc(C)ccc13)C(=O)N(c1ccc(CC(=O)O)cc1)C2=O`, in data set [1], the inhibitory constant (Ki) is 158 nM. In data set [5], this molecule had a half-life of 31.7 h. In addition, in the data set on Rattus norvegicus [3], the Activity stood at 76%. Further, the EC50 in data set [2] is 20 nM.
Take `CCOc1c2c(c(OCC)c3ccccc13)C(=O)N(c1ccc(C(C)C(=O)O)cc1)C2` (stereo unspecified): affinity in [1] was put at a Ki of 200 nM. In addition, in data set [2], the EC50 was more than 1000 nM.
As for `CCOc1c2c(c(OCC)c3ccccc13)C(=O)N(c1ccc(CC(=O)O)cc1C)C2`, in data set [2], the EC50 is 7.94 nM. Besides, the Activity in the data set with Rattus norvegicus [6] turned out to be 19%.
As for `CCOc1c2c(c(OCC)c3ccccc13)C(=O)N(c1ccc(CC(=O)O)c(Cl)c1)C2`, the EC50 in [2] was more than 1000 nM.
Turning to `NCC1(CC(=O)O)CCCCC1` [GABAPENTIN], the inhibition in vivo at 30 mg/kg in the data set with Rattus norvegicus [7] is 100%.
`CCOc1c2c(c(OCC)c3ccccc13)C(=O)N(c1ccc(CC(=O)O)cc1)C2=O`: the IC50 on Cytochrome P450 2C19 was more than 100000 nM; at Cytochrome P450 1A2, 65000 nM; at Cytochrome P450 3A4 [9], more than 100000 nM; at Cytochrome P450 2C9, more than 100000 nM; on Cytochrome P450 2D6 it was 42000 nM; on Cytochrome P450 3A4 [12], more than 100000 nM. For the same molecule, in data set [8], the CL/F is 0.2 mL/min/kg. Moreover, the Ki in [1] is 158 nM. In data set [5], the half-life is 19.9 h. Further, the CLH in data set [10] and in data set [11] was less than 0.5 mL/min/g in each case. Moreover, the concentration for a half-maximal effect (EC50) in data set [2] is 25.1 nM. In addition, the Vdss in the data set on Rattus norvegicus [13] is 0.28 L/kg.
Regarding `CC(C)Oc1c2c(c(OC(C)C)c3ccccc13)C(=O)N(c1ccc(CC(=O)O)cc1)C2`, in data set [1], the inhibitory constant (Ki) is 398 nM. Also, the EC50 in data set [2] was 39.8 nM.
Take `CCOc1c2c(c(OCC)c3ccccc13)C(=O)N(c1ccc(CC(=O)O)cc1F)C2`: the EC50 in [2] is 3.98 nM. Further, the Activity with Rattus norvegicus [6] is on record as 5%.
As for `CCOc1c2c(c(OCC)c3ccccc13)C(=O)N(c1ccc(CC(=O)O)cc1)C2`, the ED50 in the data set on Rattus norvegicus [14] was determined as 1.5 mg/kg. In data set [8], this molecule yielded a CL/F of 0.6 mL/min/kg. In data set [1], this molecule gave an inhibition constant (Ki) of 79.4 nM. This molecule gave a half-life in [5] of 8.5 h. For the same molecule, the outcome with Rattus norvegicus [15] was inactive. Moreover, the EC50 in data set [2] is 20 nM. Further, in the data set on Rattus norvegicus [13], the Vdss worked out at 0.3 L/kg. Moreover, the concentration in data set [16] fell in the range of 5 to 11 µM.
As for `CCOc1c2c(c(OCC)c3ccccc13)C(=O)N(c1ccc(CC(=O)O)cc1C(F)(F)F)C2`, the EC50 in data set [2] is 50.1 nM.
Turning to `COc1c2c(c(OC)c3ccccc13)C(=O)N(c1ccc(CC(=O)O)cc1)C2=O`, the EC50 in data set [2] was 200 nM.
Same read-out and setting: to `CCOc1c2c(c(OCC)c3ccccc13)C(=O)N(c1ccc(CC(=O)O)c(C)c1)C2` belongs more than 1000 nM.
In data set [1], `CCOc1c2c(c(OCC)c3ncccc13)C(=O)N(c1ccc(CC(=O)O)cc1)C2=O` showed a Ki of 31.6 nM. In [2], the EC50 was more than 1000 nM.
The like results for `CCOc1c2c(c(OCC)c3ccccc13)CN(c1ccc(CC(=O)O)cc1)C2` were, in that order, 631 nM and 251 nM.
With `CCOc1c2c(c(OCC)c3ccccc13)C(=O)N(c1ccc(CC(=O)O)cc1Cl)C2`, in data set [2], the EC50 is 5.01 nM. Besides, the Activity in the data set on Rattus norvegicus [6] came to 14%.
`CCCCOc1c2c(c(OCCCC)c3ccccc13)C(=O)N(c1ccc(CC(=O)O)cc1)C2`: the Ki in data set [1] is 2000 nM. In addition, the EC50 in [2] is 200 nM.
For `CCOc1c2c(c(OCC)c3cc(F)ccc13)C(=O)N(c1ccc(CC(=O)O)cc1)C2=O`, the EC50 in [2] is 79.4 nM.
